{
  "source": "patent US20110097274A1",
  "about": "“Carbon-11 and fluorine-18 labeled radioligands for positron emission tomography (PET) imaging for the brain serotonin transporters” (priority 2002, published 2011)",
  "test": "Experiment 4: plasma analysis, [^11C]AFM and [^18F]AFM in the same baboon",
  "method": "The animal was then injected with [^18F]AFM (2.60 mCi, 425 Ci/mmol, 1.51 μg) and scanned for 90 minutes. […] Arterial activity was corrected for parent fraction to form the input function.",
  "data": [
    {"smiles": "CN([11CH3])Cc1ccccc1Sc1ccc(CF)cc1N", "note": "[[^11C]AFM, [^11C]2-[2-(Dimethylaminomethyl)phenylthio]-5-fluoromethylphenylamine]", "values": [
      {"measurement": "Clearance of the parent compound", "result": 31, "unit": "L/h"},
      {"measurement": "Percent plasma activity corresponding to the parent compound", "setting": "2 minutes", "result": 75.6, "unit": "%"},
      {"measurement": "Percent plasma activity corresponding to the parent compound", "setting": "4 minutes", "result": 55.4, "unit": "%"},
      {"measurement": "Percent plasma activity corresponding to the parent compound", "setting": "12 minutes", "result": 21.4, "unit": "%"},
      {"measurement": "Percent plasma activity corresponding to the parent compound", "setting": "30 minutes", "result": 9.4, "unit": "%"},
      {"measurement": "Percent plasma activity corresponding to the parent compound", "setting": "60 minutes", "result": 6.4, "unit": "%"},
      {"measurement": "Percent plasma activity corresponding to the parent compound", "setting": "90 minutes", "result": 6.7, "unit": "%"}
    ]}
  ]
}
